Assay results as given in patent US6358885B1, “Substituted phenylheterocyclic herbicides” (Mississippi State University, priority 1992, dated 2002).

Tests used:
Assay in all cases: Test G preemergence/postemergence greenhouse plant response rating 0 to 100
alfalfa = format: in vivo, Medicago ativa; settings: 0 to 100 scale
Source text: (§1) Seeds, rhizomes, or plant parts of alfalfa (Medicago ativa), annual bluegrass (Poa annua), bermudagrass (Cynodon dactylon), broadleaf signalgrass (Brachiaria plantaginea), common purslane (Portulaca oleracea), common ragweed (Ambrosia elatior), […] (Paspalum dilatatum), goosegrass (Eleusine indica), guineagrass (Panicum maximum), […] exaltata), johnsongrass (Sorghum halepense), large crabgrass (Digitaria sanguinalis), peanut (Arachis hypoagaea), pitted morningglory (Ipomoea lacunosa), purple nutsedge (Cyperus rotundus), sandbur (Cenchrus echinatus), smooth crabgrass (Digitaria ischaemum) and yellow nutsedge (Cyperus esculentus) were planted into greenhouse pots containing greenhouse planting medium. Each pot contained only one plant species. The test compound was dissolved in a non-phytotoxic solvent and applied preemergence and/or postemergence to the plants. Preemergence applications were made within one day of planting the seeds or plant parts. Postemergence applications were applied when the plants were in the two to four leaf stage (three to twenty cm). Test chemicals were dissolved in a non-phytotoxic solvent and applied preemergence and postemergence to the plants. Untreated control plants and treated plants were placed in the greenhouse and visually evaluated for injury at 13 to 21 days after herbicide application. […] A dash (-) response indicates no test result.

peanut = format: in vivo, Arachis hypoagaea; settings: 0 to 100 scale
Source text: as §1

purple nutsedge = format: in vivo, Cyperus rotundus; settings: Rate 125 g/ha, 0 to 100 scale
Source text: as §1

broadleaf signalgrass = format: in vivo, Brachiaria plantaginea; settings: 0 to 100 scale
Source text: as §1

common purslane = format: in vivo, Portulaca oleracea; settings: 0 to 100 scale
Source text: as §1

goosegrass = format: in vivo, Eleusine indica; settings: 0 to 100 scale
Source text: as §1

common ragweed = format: in vivo, Ambrosia elatior; settings: 0 to 100 scale
Source text: as §1

yellow nutsedge = format: in vivo, Cyperus esculentus; settings: Rate 125 g/ha, 0 to 100 scale
Source text: as §1

smooth crabgrass = format: in vivo, Digitaria ischaemum; settings: 0 to 100 scale
Source text: as §1

large crabgrass = format: in vivo, Digitaria sanguinalis; settings: 0 to 100 scale
Source text: as §1

pitted morningglory = format: in vivo, Ipomoea lacunosa; settings: 0 to 100 scale
Source text: as §1

dallisgrass = format: in vivo, Paspalum dilatatum; settings: 0 to 100 scale
Source text: as §1

annual bluegrass = format: in vivo, Poa annua; settings: 0 to 100 scale
Source text: as §1

itchgrass = format: in vivo, Rottboellia exaltata; settings: 0 to 100 scale
Source text: as §1

johnsongrass = format: in vivo, Sorghum halepense; settings: 0 to 100 scale
Source text: as §1

guineagrass = format: in vivo, Panicum maximum; settings: 0 to 100 scale
Source text: as §1

bermudagrass = format: in vivo, Cynodon dactylon; settings: 0 to 100 scale
Source text: as §1

CC(C)Oc1cc(-c2nn3c(c2Cl)CCCC3)c(F)cc1Cl [Compound 21]
Plant response rating, Alfalfa Var. (alfalfa; POSTEMERGENCE, Rate 125 g/ha): 0
Plant response rating, Alfalfa Var. (alfalfa; POSTEMERGENCE, Rate 250 g/ha): 0
Plant response rating, Alfalfa Var. (alfalfa; PREEMERGENCE, Rate 125 g/ha): 0
Plant response rating, Alfalfa Var. (alfalfa; PREEMERGENCE, Rate 250 g/ha): 0
Plant response rating, Peanuts (peanut; POSTEMERGENCE, Rate 125 g/ha): 0
Plant response rating, Peanuts (peanut; POSTEMERGENCE, Rate 250 g/ha): 0
Plant response rating, Peanuts (peanut; PREEMERGENCE, Rate 125 g/ha): 0
Plant response rating, Peanuts (peanut; PREEMERGENCE, Rate 250 g/ha): 20
Plant response rating, Purple Nutsedge (purple nutsedge; POSTEMERGENCE): 0
Plant response rating, Purple Nutsedge (purple nutsedge; PREEMERGENCE): 0
Plant response rating, Brdlf Sgnlgrass (broadleaf signalgrass; POSTEMERGENCE, Rate 125 g/ha): 0
Plant response rating, Brdlf Sgnlgrass (broadleaf signalgrass; POSTEMERGENCE, Rate 250 g/ha): 0
Plant response rating, Brdlf Sgnlgrass (broadleaf signalgrass; PREEMERGENCE, Rate 125 g/ha): 0
Plant response rating, Brdlf Sgnlgrass (broadleaf signalgrass; PREEMERGENCE, Rate 250 g/ha): 0
Plant response rating, Cmn Purslane (common purslane; POSTEMERGENCE, Rate 125 g/ha): 70
Plant response rating, Cmn Purslane (common purslane; POSTEMERGENCE, Rate 250 g/ha): 90
Plant response rating, Cmn Purslane (common purslane; PREEMERGENCE, Rate 125 g/ha): 100
Plant response rating, Cmn Purslane (common purslane; PREEMERGENCE, Rate 250 g/ha): 0
Plant response rating, Goosegrass (goosegrass; POSTEMERGENCE, Rate 125 g/ha): 0
Plant response rating, Goosegrass (goosegrass; POSTEMERGENCE, Rate 250 g/ha): 0
Plant response rating, Goosegrass (goosegrass; PREEMERGENCE, Rate 125 g/ha): 100
Plant response rating, Goosegrass (goosegrass; PREEMERGENCE, Rate 250 g/ha): 70
Plant response rating, Cmn Ragweed (common ragweed; POSTEMERGENCE, Rate 125 g/ha): 0
Plant response rating, Cmn Ragweed (common ragweed; POSTEMERGENCE, Rate 250 g/ha): 100
Plant response rating, Cmn Ragweed (common ragweed; PREEMERGENCE, Rate 125 g/ha): 50
Plant response rating, Cmn Ragweed (common ragweed; PREEMERGENCE, Rate 250 g/ha): 50
Plant response rating, Yellow Nutsedge (yellow nutsedge; POSTEMERGENCE): 0
Plant response rating, Yellow Nutsedge (yellow nutsedge; PREEMERGENCE): 0
Plant response rating, Smooth Crabgras (smooth crabgrass; POSTEMERGENCE, Rate 125 g/ha): 0
Plant response rating, Smooth Crabgras (smooth crabgrass; POSTEMERGENCE, Rate 250 g/ha): 0
Plant response rating, Smooth Crabgras (smooth crabgrass; PREEMERGENCE, Rate 125 g/ha): 70
Plant response rating, Smooth Crabgras (smooth crabgrass; PREEMERGENCE, Rate 250 g/ha): 20
Plant response rating, Large Crabgrass (large crabgrass; POSTEMERGENCE, Rate 125 g/ha): 0
Plant response rating, Large Crabgrass (large crabgrass; POSTEMERGENCE, Rate 250 g/ha): 0
Plant response rating, Large Crabgrass (large crabgrass; PREEMERGENCE, Rate 125 g/ha): 100
Plant response rating, Large Crabgrass (large crabgrass; PREEMERGENCE, Rate 250 g/ha): 60
Plant response rating, Pit Morninglory (pitted morningglory; POSTEMERGENCE, Rate 125 g/ha): 0
Plant response rating, Pit Morninglory (pitted morningglory; POSTEMERGENCE, Rate 250 g/ha): 20
Plant response rating, Pit Morninglory (pitted morningglory; PREEMERGENCE, Rate 125 g/ha): 0
Plant response rating, Pit Morninglory (pitted morningglory; PREEMERGENCE, Rate 250 g/ha): 20
Plant response rating, Dallisgrass (dallisgrass; POSTEMERGENCE, Rate 125 g/ha): 0
Plant response rating, Dallisgrass (dallisgrass; POSTEMERGENCE, Rate 250 g/ha): 0
Plant response rating, Dallisgrass (dallisgrass; PREEMERGENCE, Rate 125 g/ha): 20
Plant response rating, Dallisgrass (dallisgrass; PREEMERGENCE, Rate 250 g/ha): 40
Plant response rating, Ann Bluegrass (annual bluegrass; POSTEMERGENCE, Rate 125 g/ha): 0
Plant response rating, Ann Bluegrass (annual bluegrass; POSTEMERGENCE, Rate 250 g/ha): 0
Plant response rating, Ann Bluegrass (annual bluegrass; PREEMERGENCE, Rate 125 g/ha): 30
Plant response rating, Ann Bluegrass (annual bluegrass; PREEMERGENCE, Rate 250 g/ha): 0
Plant response rating, Itchgrass (itchgrass; POSTEMERGENCE, Rate 125 g/ha): 0
Plant response rating, Itchgrass (itchgrass; POSTEMERGENCE, Rate 250 g/ha): 0
Plant response rating, Itchgrass (itchgrass; PREEMERGENCE, Rate 125 g/ha): 60
Plant response rating, Itchgrass (itchgrass; PREEMERGENCE, Rate 250 g/ha): 0
Plant response rating, Johnsongrass (johnsongrass; POSTEMERGENCE, Rate 125 g/ha): 0
Plant response rating, Johnsongrass (johnsongrass; POSTEMERGENCE, Rate 250 g/ha): 0
Plant response rating, Johnsongrass (johnsongrass; PREEMERGENCE, Rate 125 g/ha): 30
Plant response rating, Johnsongrass (johnsongrass; PREEMERGENCE, Rate 250 g/ha): 0
Plant response rating, Guineagrass (guineagrass; POSTEMERGENCE, Rate 125 g/ha): 0
Plant response rating, Guineagrass (guineagrass; POSTEMERGENCE, Rate 250 g/ha): 0
Plant response rating, Guineagrass (guineagrass; PREEMERGENCE, Rate 125 g/ha): 100
Plant response rating, Guineagrass (guineagrass; PREEMERGENCE, Rate 250 g/ha): 0
Plant response rating, Bermudagrass (bermudagrass; POSTEMERGENCE, Rate 125 g/ha): 0
Plant response rating, Bermudagrass (bermudagrass; POSTEMERGENCE, Rate 250 g/ha): 0
Plant response rating, Bermudagrass (bermudagrass; PREEMERGENCE, Rate 125 g/ha): 20
Plant response rating, Bermudagrass (bermudagrass; PREEMERGENCE, Rate 250 g/ha): 0
